Patent publication USRE48097E1, “Cephem compounds, their production and use” (priority 2015, dated 2020)
≈ marks a conversion by molar mass, not a printed value. Where two headings read alike, the source gives them in different places.

Tests used:
[1] = tested on: K. pneumoniae 2712; test: MIC against K. pneumoniae 2712; format: cell-based; conditions: Table 3, K. pneumoniae 2712, KPC-3, VIM-1
Method: (§1) As shown, the foregoing composition was tested for minimum inhibitory concentration (MIC, μg/mL) against bacteria listed in Tables 2-3.

[2] = tested on: S. aureus3137; test: MIC against S. aureus3137; format: cell-based, S. aureus; conditions: Table 2, S. aureus3137, MSSA
Excerpt: (§2) Without limitation, the present cephem compounds alone, or in combination with one or more β-lactamase inhibitors, may provide improved antibacterial efficacy, particularly in antibiotic-resistant bacterial strains. It is believed that the present compounds may be structurally different from known compounds and, as a result, may be more basic in nature. It is an advantage that the present compounds may extend the spectrum of effective bacterial compounds, particularly against previously-resistant bacteria (e.g. ESKAPE organisms), and/or gram negative bacteria, without significant side effects. In a preferred embodiment, the present cephem compound may comprise reference compound ceftazidime, which may be used alone, or in combination with one or more β-lactamase inhibitors, such as NXL-104. As shown, the foregoing composition was tested for minimum inhibitory concentration (MIC, μg/mL) against bacteria listed in Tables 2-3.

[3] = tested on: M. morganii 2409; test: MIC against M. morganii 2409; format: cell-based; conditions: Table 2, M. morganii 2409, High level cephase, β-Lactamase producing
Excerpt: as §2

[4] = tested on: E. cloacae 552; test: MIC against E. cloacae 552; format: cell-based; conditions: Table 2, E. cloacae 552, Caz S, IMP S
Excerpt: as §2

[5] = tested on: E. cloacae 2689; test: MIC against E. cloacae 2689; format: cell-based; conditions: Table 3, E. cloacae 2689, KPC-2
Method: as §1

[6] = tested on: S. pneumoniae ATCC 700673; test: MIC against S. pneumoniae ATCC 700673; format: cell-based; conditions: Table 2, S. pneumoniae ATCC 700673, Pen R
Excerpt: as §2

[7] = tested on: K. pneumoniae 4105; test: MIC against K. pneumoniae 4105; format: cell-based; conditions: K. pneumoniae 4105, KPC-3, TEM-1, SHV-11
Method: as §1

[8] = tested on: E. cloacae596; test: MIC against E. cloacae596; format: cell-based, E. cloacae; conditions: Table 2, E. cloacae596, Caz R, IMP S
Excerpt: as §2

[9] = tested on: K. pneumoniae 2697; test: MIC against K. pneumoniae 2697; format: cell-based; conditions: Table 2, K. pneumoniae 2697, IMP-4
Excerpt: as §2

[10] = tested on: E. cloacae 2705; test: MIC against E. cloacae 2705; format: cell-based; conditions: Table 3, E. cloacae 2705, VIM-1, KPC-3type
Method: as §1

[11] = tested on: K. baumanii 4094; test: MIC against K. baumanii 4094; format: cell-based; conditions: Table 2, K. baumanii 4094, OXA-51
Excerpt: as §2

[12] = tested on: K. pneumoniae 4088; test: MIC against K. pneumoniae 4088; format: cell-based; conditions: Table 3, K. pneumoniae 4088, KPC-3
Method: as §1

[13] = tested on: E. coli 4101; test: MIC against E. coli 4101; format: cell-based; conditions: Table 2, E. coli 4101, CTX-M-14, TEM-1
Excerpt: as §2

[14] = tested on: K. pneumoniae 4107; test: MIC against K. pneumoniae 4107; format: cell-based; conditions: K. pneumoniae 4107, KPC-2, TEM-1, SHV-11
Method: as §1

[15] = tested on: C. freundii 2003; test: MIC against C. freundii 2003; format: cell-based; conditions: Table 2, C. freundii 2003, Caz R, IMP S
Excerpt: as §2

[16] = tested on: S. aureus 3147; test: MIC against S. aureus 3147; format: cell-based; conditions: Table 2, S. aureus 3147, MSSA
Excerpt: as §2

[17] = tested on: E. cloacae 566; test: MIC against E. cloacae 566; format: cell-based; conditions: Table 2, E. cloacae 566, Caz R, IMP S
Excerpt: as §2

[18] = tested on: K. pneumoniae 4106; test: MIC against K. pneumoniae 4106; format: cell-based; conditions: K. pneumoniae 4106, KPC-3, TEM-1, SHV-12, SHV-141
Method: as §1

[19] = tested on: C. freundii 2487; test: MIC against C. freundii 2487; format: cell-based; conditions: Table 2, C. freundii 2487, Caz R, IMP S
Excerpt: as §2

[20] = tested on: E. coli 4103; test: MIC against E. coli 4103; format: cell-based; conditions: Table 3, E. coli 4103, KPC-2, TEM-1, CMY-type
Method: as §1

[21] = tested on: P. aeruginosa 2573; test: MIC against P. aeruginosa 2573; format: cell-based; conditions: Table 2, P. aeruginosa 2573, OXA-10 (Class D)
Excerpt: as §2

[22] = tested on: C. freundii 15; test: MIC against C. freundii 15; format: cell-based; conditions: Table 2, C. freundii 15, Caz R, IMP S
Excerpt: as §2

[23] = tested on: E. cloacae 2704; test: MIC against E. cloacae 2704; format: cell-based; conditions: Table 2, E. cloacae 2704, P99
Excerpt: as §2

[24] = Klebsiella pneumoniae, alone, read-out: MIC
[25] = Staphylococcus aureus, alone, read-out: MIC
[26] = Enterobacter cloacae, alone, read-out: MIC
[27] = Table 2, in combination with NXL-104
[28] = Table 3, in combination with NXL-104
[29] = Escherichia coli, alone, read-out: MIC
[30] = Citrobacter freundii, alone, read-out: MIC

MIC [1, 24]: > 32 µg/mL
MIC ([1]; in combination with NXL-104): 4 µg/mL
MIC [2, 25]: 32 µg/mL
MIC ([2]; in combination with NXL-104): 4.00 µg/mL
MIC ([3]; Morganella morganii, alone, read-out: MIC): 16 µg/mL
MIC ([3]; in combination with NXL-104): 0.50 µg/mL
MIC [4, 26]: 0.12 µg/mL
MIC ([4]; in combination with NXL-104): ≤0.06 µg/mL
MIC [5, 26]: 16 µg/mL (≈ 22.1 µM)
MIC ([5]; in combination with NXL-104): 0.5 µg/mL
MIC ([6]; Streptococcus pneumoniae, ATCC700673, alone, read-out: MIC): 2 µg/mL
MIC ([6]; in combination with NXL-104): 2.00 µg/mL
MIC ([7]; Klebsiella pneumoniae, 4105, Table 2, alone, read-out: MIC): 32 µg/mL (≈ 44.2 µM)
MIC ([7]; Klebsiella pneumoniae, 4105, Table 3, alone, read-out: MIC): 32 µg/mL (≈ 44.2 µM)
MIC [7, 27]: 1.00 µg/mL
MIC [7, 28]: 1 µg/mL
MIC [8, 26]: 8 µg/mL
MIC ([8]; in combination with NXL-104): 0.25 µg/mL
MIC [9, 24]: 16 µg/mL
MIC ([9]; in combination with NXL-104): 0.50 µg/mL
MIC [10, 26]: > 32 µg/mL
MIC ([10]; in combination with NXL-104): >32 µg/mL
MIC ([11]; alone, read-out: MIC): 16 µg/mL
MIC ([11]; in combination with NXL-104): 4.00 µg/mL
MIC [12, 24]: 32 µg/mL (≈ 44.2 µM)
MIC ([12]; in combination with NXL-104): 2 µg/mL
MIC [13, 29]: 0.5 µg/mL
MIC ([13]; in combination with NXL-104): 0.12 µg/mL
MIC ([14]; Klebsiella pneumoniae, 4107, Table 2, alone, read-out: MIC): 32 µg/mL (≈ 44.2 µM)
MIC ([14]; Klebsiella pneumoniae, 4107, Table 3, alone, read-out: MIC): 16 µg/mL (≈ 22.1 µM)
MIC [14, 27]: 2.00 µg/mL
MIC [14, 28]: 1 µg/mL
MIC [15, 30]: 8 µg/mL
MIC ([15]; in combination with NXL-104): 0.25 µg/mL
MIC [16, 25]: 2 µg/mL
MIC ([16]; in combination with NXL-104): 2.00 µg/mL
MIC [17, 26]: 2 µg/mL
MIC ([17]; in combination with NXL-104): 0.50 µg/mL
MIC ([18]; Klebsiella pneumoniae, 4106, Table 2, alone, read-out: MIC): 16 µg/mL (≈ 22.1 µM)
MIC ([18]; Klebsiella pneumoniae, 4106, Table 3, alone, read-out: MIC): 32 µg/mL (≈ 44.2 µM)
MIC [18, 27]: 1.00 µg/mL
MIC [18, 28]: 2 µg/mL
MIC [19, 30]: 32 µg/mL
MIC ([19]; in combination with NXL-104): 1.00 µg/mL
MIC [20, 29]: > 32 µg/mL
MIC ([20]; in combination with NXL-104): 4 µg/mL
MIC ([21]; Pseudomonas aeruginosa, alone, read-out: MIC): 4 µg/mL
MIC ([21]; in combination with NXL-104): 4.00 µg/mL
MIC [22, 30]: 16 µg/mL
MIC ([22]; in combination with NXL-104): 0.50 µg/mL
MIC [23, 26]: 16 µg/mL
MIC ([23]; in combination with NXL-104): 2.00 µg/mL
Structure (SMILES): CC(C)(O/N=C(\C(=O)N[C@@H]1C(=O)N2C(C(=O)[O-])=C(C[n+]3ccc4c(ccn4Cc4cc(C(=N)N)cs4)c3)CS[C@H]12)c1csc(N)n1)C(=O)O [Example 5, (6R,7R)-7-{[(2Z)-2-(2-Amino-1,3-thiazol-4-yl)-2-{[(2-carboxypropan-2-yl)oxy]imino}acetyl]amino}-3-({1-[(4-carbamimidoylthiophen-2-yl)methyl]-1H-pyrrolo[3,2-c]pyridin-5-ium-5-yl}methyl)-8-oxo-5-thia-1-azabicyclo[4.2.0]oct-2-ene-2-carboxylate]
